{"source": "patent US20210123061A1", "about": "“METHODS AND COMPOSITIONS FOR TREATING INFLAMMATORY DISEASE OR DISORDER” (THE BRIGHAM AND WOMEN'S HOSPITAL, INC., priority 2018, published 2021)", "key": {"[1]": {"tested_on": "RSK-substrates (RXXpS/T phospho-peptides)", "assay": "Phospho-proteomics with anti-RXXpS/T enrichment in IFN-γ-stimulated macrophages", "type": "cell-based, human", "details": "BI-D1870 +IFNg, IP:RXXpS/T, DMSO = 1.00", "procedure": "(FIG. 6A) Scheme of phospho-proteomics. Human PBMC-derived macrophages were treated with DMSO or BI-D1870 for two hours followed by IFN-γ stimulation for subsequent proteolysis and phospho-peptide enrichment using the anti-RXXpS/T antibody strategy. […] N=2 donors. […] The average shortest distance of the same number of randomly selected genes to disease genes was calculated for N=250 realizations in order to compare the average shortest distance value to random expectation. Empirical p-values were calculated based on 100 degree-preserved randomizations of the first neighbor networks.\nPhospho-proteomics. Phospho-peptide immunoaffinity purification from cell lysates was performed as described previously (36), with minor modifications. Human PBMC-derived macrophages were pretreated with DMSO or BI-D1870 followed by IFN-γ stimulation. Cell lysates (8.0 mg) were proteolyzed (Lys-C, Wako Chemicals) using in-solution urea strategy detailed previously (34). Trifluoroacetic acid (TFA) was added to protein digests to a final concentration of 1%, precipitate was removed by centrifugation, and digests were loaded onto Sep-Pak C18 columns (Waters) equilibrated with 0.1% TFA. Columns were washed with 0.1% TFA and wash buffer (0.1% TFA, 5% acetonitrile). A peptide fraction was obtained by elution with elution buffer (0.1% TFA, 40% acetonitrile). The peptide eluate was frozen overnight and lyophilize frozen peptide solution for 2 days. Peptides were dissolved in 1.4 mL of IAP buffer (Cell signaling Technology). Insoluble matter was removed by centrifugation. […] The immobilized antibody beads were washed three times with 1 ml IAP buffer and three times with 1 ml water, all at 4° C. Peptides were eluted from beads by incubation with 55 μl of 0.15% TFA at room temperature for 10 minutes (eluate 1), followed by a wash of the beads (eluate 2) with 50 μl of 0.15% TFA. Both eluates were combined. The peptide solution was desalted using Oasis Hlb 1 cc columns (Waters), dried in a SpeedVac, resuspend with Trypsin solution, and digested overnight. After desalting using Oasis Hlb 1 cc columns, peptides were dried in a SpeedVac, and resuspend with 40 μl of 5% acetonitrile and 0.5% formic acid for subsequent analysis by liquid chromatography/mass spectrometry (LC/MS).\nEach peptide sample was analyzed four times: a full scan range of 350-1800 m/z and three gas phase separation scans—350-500 m/z, 500-700 m/z, and 700-1200 m/z in order to increase phospho-peptide signals.\nPhospho-proteomics and kinase assays. The MS/MS data were queried as above using a 10-ppm tolerance window in the MS1 search space, and a 0.02 Da fragment tolerance window for EThcD or HCD. Methionine oxidation, and phosphorylation of serine and threonine were set as variable modifications, and carbamidomethylation of cysteine residues was set as fixed modifications. High confidently assigned phospho-peptides were used for precursor ion area under the curve (AUC) quantification. The peptides that were detected in IgG conditions were considered as non-specific signals and excluded. The normalized precursor ion intensities were exported from PD2.1."}, "[2]": {"tested_on": "IFN-γ-induced chemokine mRNA", "assay": "Real-time PCR of IFN-γ-induced genes in PBMC-derived macrophages", "type": "cell-based, human", "details": "1 or 10 μM for two hours, then IFN-γ eight hours, vs DMSO", "procedure": "FIGS. 4A-D show silencing RSK1 suppresses IFN-γ-induced chemokines in human primary macrophages. (FIG. 4A and FIG. 4B) Human PBMC-derived macrophages were treated with control siRNA or RSK1 siRNA followed by treatment with IFN-γ for the indicated time. Total RNA samples were subjected to real-time PCR analysis using the indicated probes and primers. GAPDH was used for normalization. (FIG. 4A) Representative results from one donor. Data are means±SD. (FIG. 4B) Quantification of the area-under-the-curve (AUC) plots of the real-time PCR data in panel (FIG. 4A). Data are means±SE. N=3 donors. *P<0.05 and **P<0.01 indicate significance for AUC of mRNA levels by paired Student's test. (FIG. 4C) Macrophages were treated with DMSO or BI-D1870 (1 or 10 μM) for two hours followed by stimulation with IFN-γ for eight hours. Total RNA samples were subjected to real-time PCR analysis using the indicated probes and primers. GAPDH was used for normalization. Data are means±SE. N=3-4 donors. *P<0.05 and **P<0.01 indicate significance for mRNA levels compared to control (treatment with DMSO and IFN-γ) by Dunnett's comparison test. […] Secreted chemokine levels were measured using ELISA. […]\nReal-time PCR. […] The mRNA levels were determined by TaqMan-based real-time PCR reactions (Thermo Fisher Scientific). […] Data were normalized by human GAPDH and then calculated using the delta-delta Ct method."}}}
{"smiles": "CC(C)CCN1c2nc(Nc3cc(F)c(O)c(F)c3)ncc2N(C)C(=O)C1C", "note": "(stereo not shown) [BI-D1870]", "values": [{"measurement": "Intensity of phospho-peptide SLC20A1 S335 [R].ERLPSVDLK.[E]", "setting": "[1]; DMSO +IFNg = 1.51", "result": 0.51}, {"measurement": "Intensity of phospho-peptide LUC7L3 T238 [R].KRTEEPDRDER.[L]", "setting": "[1]; DMSO +IFNg = 1.55", "result": 1.03}, {"measurement": "Intensity of phospho-peptide STX7 S129 [R].ASSRVSGSFPEDSSK.[E]", "setting": "[1]; DMSO +IFNg = 1.60", "result": 0.67}, {"measurement": "Intensity of phospho-peptide AP1AR T228 [R].SKTEEDILR.[A]", "setting": "[1]; DMSO +IFNg = 1.67", "result": 0.80}, {"measurement": "Intensity of phospho-peptide AKAP13 T2471 [R].RAETFGGFDSHQMNASK.[G]", "setting": "[1]; DMSO +IFNg = 1.68", "result": 0.73}, {"measurement": "Intensity of phospho-peptide CLASP1 S646 [R].RQSSGSATNVASTPDNR.[G]", "setting": "[1]; DMSO +IFNg = 1.75", "result": 0.94}, {"measurement": "Intensity of phospho-peptide TRPM7 S1504 [R].RPSTEDTHEVDSK.[A]", "setting": "[1]; DMSO +IFNg = 1.75", "result": 0.73}, {"measurement": "Intensity of phospho-peptide SLC4A7 S407 [R].ENSTVDFSK.[VEG]", "setting": "[1]; DMSO +IFNg = 1.79", "result": 1.61}, {"measurement": "Intensity of phospho-peptide IFNGR1 T295 [R].SATLETKPESK.[Y]", "setting": "[1]; DMSO +IFNg = 1.83", "result": 0.77}, {"measurement": "Intensity of phospho-peptide RPS6 S235 [K].RRRLSSLRASTSK.[S]", "setting": "[1]; DMSO +IFNg = 1.86", "result": 0.74}, {"measurement": "Intensity of phospho-peptide REPS1 S650 [R].LKSEDELRPEVDEHTQK.[T]", "setting": "[1]; DMSO +IFNg = 1.91", "result": 0.94}, {"measurement": "Intensity of phospho-peptide REPS1 S650 [R].RLKSEDELRPEVDEHTQK.[T]", "setting": "[1]; DMSO +IFNg = 1.96", "result": 1.09}, {"measurement": "Intensity of phospho-peptide GPBP1 S49 [R].HNSSDGFDSAIGRPNGGNFGR.[K]", "setting": "[1]; DMSO +IFNg = 2.05", "result": 0.45}, {"measurement": "Intensity of phospho-peptide MYO1E T935 [R].RNTTQNTGYSSGTQNANYPVR.[A]", "setting": "[1]; DMSO +IFNg = 2.15", "result": 0.88}, {"measurement": "Intensity of phospho-peptide CHP1 T7 [R].ASTLLRDEELEEIKK.[E]", "setting": "[1]; DMSO +IFNg = 2.18", "result": 1.00}, {"measurement": "Intensity of phospho-peptide NDRG3 S338 [R].THSTSSSLGSGESPFSR.[S]", "setting": "[1]; DMSO +IFNg = 2.25", "result": 1.07}, {"measurement": "Intensity of phospho-peptide GPBP1 S49 [R].RHNSSDGFDSAIGRPNGGNFGR.[K]", "setting": "[1]; DMSO +IFNg = 2.28", "result": 1.00}, {"measurement": "Intensity of phospho-peptide NDRG1 S330 [R].TASGSSVTSLDGTR.[S]", "setting": "[1]; DMSO +IFNg = 2.29", "result": 1.88}, {"measurement": "Intensity of phospho-peptide STK11IP S398 [R].RASISEPSDTDPEPR.[T]", "setting": "[1]; DMSO +IFNg = 2.31", "result": 0.58}, {"measurement": "Intensity of phospho-peptide EIF4B S422 [R].TGSESSQTGTSTTSSR.[SN]", "setting": "[1]; DMSO +IFNg = 2.58", "result": 1.29}, {"measurement": "Intensity of phospho-peptide SPECC1L T838 [R].RSSTSSEPTPTVK.[T]", "setting": "[1]; DMSO +IFNg = 2.80", "result": 1.80}, {"measurement": "Intensity of phospho-peptide AKT1S1 T266 [R].LNTSDFQK.[L]", "setting": "[1]; DMSO +IFNg = 3.11", "result": 0.89}, {"measurement": "Intensity of phospho-peptide RPS6 S235; S236 [R].RLSSLRASTSK.[S]", "setting": "[1]; DMSO +IFNg = 3.46", "result": 1.65}, {"measurement": "Intensity of phospho-peptide FLNA S2152 [R].RAPSVANVGSHCDLSLK.[I]", "setting": "[1]; DMSO +IFNg = 3.67", "result": 1.32}, {"measurement": "mRNA levels of pro-inflammatory chemokines such as CCL2/MCP-1", "setting": "[2]", "result": "attenuated"}]}
